Measurements: patent US20210276977A1, “BICYCLIC INHIBITORS OF HISTONE DEACETYLASE” (Alkermes, Inc., priority 2018, published 2021)

Tests used:
HDAC2 = molecular target: T1, HDAC2 (Homo sapiens, UniProt Q92769); assay: HDAC2 Enzymatic Inhibition Assay in SH-SY5Y Cell Lysate with an Exogenous Substrate (HDAC-Glo 2); format: cell-based; details: SH-SY5Y cells, five hours incubation, Table 3, class symbols
T1 construct: host or cells: SH-SY5Y cells
Method: HDAC2 Enzymatic Inhibition Assay in SH-SY5Y Cell Lysate with an Exogenous Substrate
SH-SY5Y cells (Sigma) were cultured in Eagle's Modified Essential Medium supplemented with 10% fetal bovine serum and pen/strep. Twenty-four hours prior to compound dosing 20 uL of cells were plated in white 384 well plates at a density of 1,500 cells/well. Compounds were serially diluted in neat DMSO and then diluted 1:100 v/v into media without FBS and mixed. Media was removed from the plated cells and the diluted compounds in serum free media (1% v/v final DMSO) were added and incubated at 37° C. for five hours. Ten uL of HDAC-Glo 2 reagent with 0.1% Triton X-100 was then added, the plate was mixed and allowed to develop at room temperature for 100 minutes. Plates were then read with a Spectramax LMax luminometer employing a 0.4 s integration time. Dose response curves were constructed with normalized data where CI-994 at 100 uM was defined as 100% inhibition and DMSO alone as 0% inhibition.
(§1) In the table, “A” indicates a IC50 value of less than 0.5 μM; “B” a IC50 value from 0.5 μM to 1.0 μM; “C” a IC50 value of greater than 1.0 μM and less than or equal to 2.0 μM; and “D” indicates an IC50 value of greater than 2.0 μM. NT=Not Tested.

Full length Human HDAC1 = molecular target: T2, Full length Human HDAC1 (Homo sapiens, UniProt Q13547); assay: HDAC1 enzymatic assay (deacetylation of FAM-labeled peptide substrate, microfluidic electrophoresis); format: biochemical; details: recombinant enzymatic assay, Table 2, class symbols
T2 construct: Full length Human HDAC1; His (C); FLAG (C); host or cells: baculovirus expression system
Method: (§2) HDAC2 and HDAC1 Enzymatic Assay (HDAC2 and HDAC1 IC50 Data)
(§3) The following describes an assay protocol for measuring the deacetylation of a peptide substrate by HDAC2 or HDAC1.
(§4) HD AC protein composition and respective substrate peptides are summarized below.
(§5) HD AC reactions are assembled in 384 well plates (Greiner) in a total volume of 20 μL as following:
(§6) HDAC proteins are pre-diluted in the assay buffer comprising: 100 mM HEPES, pH 7.5, 0.1% BSA, 0.01% Triton X-100, 25 mM KCl and dispensed into 384 well plate (10 uL per well).
(§7) Test compounds are serially pre-diluted in DMSO and added to the protein samples by acoustic dispensing (Labcyte Echo). Concentration of DMSO is equalized to 1% in all samples.
(§8) Control samples (0%-inhibition in the absence of inhibitor, DMSO only) and 100%-inhibition (in the absence of enzyme) are assembled in replicates of four and used to calculate the %-inhibition in the presence of compounds.
(§9) At this step compounds can be pre-incubated with enzyme if desired.
(§10) The reactions are initiated by addition of 10 uL of the FAM-labeled substrate peptide pre-diluted in the same assay buffer. Final concentration of substrate peptide is 1 uM (HDAC1-2).
(§11) The reactions are allowed to proceed at room temperature. Following incubation, the reactions are quenched by addition of 50 μL of termination buffer (100 mM HEPES, pH7.5, 0.01% Triton X-100, 0.1% SDS). Terminated plates are analyzed on a microfluidic electrophoresis instrument (Caliper LabChip® 3000, Caliper Life Sciences/Perkin Elmer) which enables electrophoretic separation of de-acetylated product from acetylated substrate. A change in the relative intensity of the peptide substrate and product is the parameter measured. Activity in each test sample is determined as the product to sum ratio (PSR): P/(S+P), where P is the peak height of the product, and S is the peak height of the substrate. Percent inhibition (Pinh) is determined using the following equation: Pinh=(PSR0% inh−PSRcompound)/(PSR0% inh−PSR100% inh)*100, in which: PSRcompound is the product/sum ratio in the presence of compound, PSR0% inh is the product/sum ratio in the absence of compound and the PSR100% inh is the product/sum ratio in the absence of the enzyme. To determine IC50 of compounds (50%-inhibition) the %-inh data (Pinh versus compound concentration) are fit by a 4 parameter sigmoid dose-response model using XLfit software (IDBS).
as §1

Full length Human HDAC2 = molecular target: T3, Full length Human HDAC2 (Homo sapiens, UniProt Q92769); assay: HDAC2 enzymatic assay (deacetylation of FAM-labeled peptide substrate, microfluidic electrophoresis); format: biochemical; details: recombinant enzymatic assay, Table 2, class symbols
T3 construct: Full length Human HDAC2; FLAG (C); host or cells: baculovirus expression system
Method: as §2, §3, §4, §5, §6, §7, §8, §9, §10, §11, §1

T1 sequence (Q92769 whole entry): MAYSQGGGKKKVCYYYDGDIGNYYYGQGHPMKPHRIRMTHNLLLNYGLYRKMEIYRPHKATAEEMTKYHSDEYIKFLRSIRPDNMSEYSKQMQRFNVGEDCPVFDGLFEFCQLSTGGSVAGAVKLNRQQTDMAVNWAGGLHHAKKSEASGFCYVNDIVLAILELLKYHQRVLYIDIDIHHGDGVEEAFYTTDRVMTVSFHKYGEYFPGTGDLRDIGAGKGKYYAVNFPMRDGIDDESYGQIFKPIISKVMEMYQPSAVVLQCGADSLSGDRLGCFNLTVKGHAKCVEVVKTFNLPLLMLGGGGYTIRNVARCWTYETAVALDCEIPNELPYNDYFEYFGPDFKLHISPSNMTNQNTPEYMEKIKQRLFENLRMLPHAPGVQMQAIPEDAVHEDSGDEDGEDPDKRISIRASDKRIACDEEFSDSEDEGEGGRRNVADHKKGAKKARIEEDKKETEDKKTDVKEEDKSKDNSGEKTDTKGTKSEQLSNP
T3 sequence (Q92769 whole entry): as above
T2 sequence (Q13547 whole entry): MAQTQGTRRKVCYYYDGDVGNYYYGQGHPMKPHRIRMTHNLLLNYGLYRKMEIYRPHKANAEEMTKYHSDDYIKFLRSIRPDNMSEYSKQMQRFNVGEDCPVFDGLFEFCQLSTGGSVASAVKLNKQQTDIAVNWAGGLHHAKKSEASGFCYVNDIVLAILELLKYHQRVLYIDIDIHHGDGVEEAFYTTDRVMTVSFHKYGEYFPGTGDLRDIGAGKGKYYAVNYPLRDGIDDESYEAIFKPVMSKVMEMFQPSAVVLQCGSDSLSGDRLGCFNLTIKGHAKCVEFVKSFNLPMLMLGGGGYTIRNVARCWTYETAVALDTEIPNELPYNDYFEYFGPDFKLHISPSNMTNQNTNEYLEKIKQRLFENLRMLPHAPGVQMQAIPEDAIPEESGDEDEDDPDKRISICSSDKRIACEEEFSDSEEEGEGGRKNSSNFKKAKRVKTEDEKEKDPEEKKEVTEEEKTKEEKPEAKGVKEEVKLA

Row | Structure (SMILES) | IC50 (HDAC2) [µM] | IC50 (Full length Human HDAC1) [µM] | IC50 (Full length Human HDAC2) [µM]
1 | Nc1ccc(-c2ccc(F)cc2F)nc1NC(=O)N1CC(Cc2ncc(F)cn2)C1 [Compound 21] | 0.5 to 1 | < 0.5 | 0.5 to 1
2 | Nc1ccc(-c2ccc(F)cc2F)nc1NC(=O)N1CC(Cc2ncco2)C1 [Compound 22] | 0.5 to 1 | 0.5 to 1 | 0.5 to 1
3 | Nc1ccc(-c2ccc(F)cc2F)nc1NC(=O)N1CC(Cc2cccnn2)C1 [Compound 23] | 0.5 to 1 | 1 to 2 | 0.5 to 1
4 | Cc1cnc(CC2CN(C(=O)Nc3nc(-c4ccc(F)cc4F)ccc3N)C2)s1 [Compound 25] | > 2 |  | 
5 | Nc1ccc(-c2ccc(F)cc2F)nc1NC(=O)N1CC(Oc2cccnc2)C1 [Compound 28] | > 2 |  | 
6 | Nc1ccc(-c2ccc(F)cc2F)nc1NC(=O)N1CC(OCc2ccccn2)C1 [Compound 29] | > 2 |  | 
7 | Nc1ccc(-c2ccc(F)cc2F)nc1NC(=O)N1CC(Cc2ccncn2)C1 [Compound 32] | 1 to 2 |  | 
8 | Nc1ccc(-c2ccc(F)cc2F)nc1NC(=O)N1CC(C(F)c2ncc(F)cn2)C1 (stereo not drawn) [Compound 41] | 1 to 2 |  | 
9 | Nc1ccc(-c2ccc(F)cc2F)nc1NC(=O)N1CC(Cc2cccc3nccn23)C1 [Compound 48] | > 2 |  | 
10 | Nc1ccc(-c2ccc(F)cc2F)nc1NC(=O)N1CC(Cc2ccc(C(F)(F)F)cn2)C1 [Compound 49] | > 2 |  | 
11 | Cc1cc(C)nc(CC2CN(C(=O)Nc3nc(-c4ccc(F)cc4F)ccc3N)C2)n1 [Compound 50] | > 2 |  | 
12 | Cc1cn(CC2CN(C(=O)Nc3nc(-c4ccc(F)cc4F)ccc3N)C2)cn1 [Compound 51] | > 2 |  | 
13 | Cc1cncn1CC1CN(C(=O)Nc2nc(-c3ccc(F)cc3F)ccc2N)C1 [Compound 52] | > 2 |  | 
14 | Cc1ccn(CC2CN(C(=O)Nc3nc(-c4ccc(F)cc4F)ccc3N)C2)n1 [Compound 53] | > 2 |  | 
15 | Cc1ccnn1CC1CN(C(=O)Nc2nc(-c3ccc(F)cc3F)ccc2N)C1 [Compound 54] | 1 to 2 |  | 
16 | Cc1cnc(CC2CN(C(=O)Nc3nc(-c4ccc(F)cc4F)ccc3N)C2)o1 [Compound 55] | > 2 |  | 
17 | CCC(c1ncccn1)C1CN(C(=O)Nc2nc(-c3ccc(F)cc3F)ccc2N)C1 (stereo not drawn) [Compound 56] | > 2 |  | 
18 | CC(c1ncccn1)C1CN(C(=O)Nc2nc(-c3ccccc3F)ccc2N)C1 (stereo not drawn) [Compound 58] | 1 to 2 |  | 
19 | CC(F)(c1ncccn1)C1CN(C(=O)Nc2nc(-c3ccc(F)cc3F)ccc2N)C1 (stereo not drawn) [Compound 60] | > 2 |  | 
20 | Cc1cnc(CC2CN(C(=O)Nc3nc(-c4ccc(F)s4)ccc3N)C2)o1 [Compound 62] | > 2 |  | 
21 | Cc1cnc(CC2CN(C(=O)Nc3nc(-c4ccc(F)cc4)ccc3N)C2)o1 [Compound 63] | 1 to 2 |  | 
22 | Cc1cnc(CC2CN(C(=O)Nc3nc(-c4ccc(F)s4)ccc3N)C2)nc1 [Compound 67] | 0.5 to 1 |  | 
23 | Nc1ccc(-c2ccc(F)cc2)nc1NC(=O)N1CC(C(F)(F)c2ccccn2)C1 [Compound 75] | > 2 |  | 
24 | Nc1ccc(-c2ccc(F)cc2)nc1NC(=O)N1CC(Cc2ccc(C(F)(F)F)cn2)C1 [Compound 85] | > 2 |  | 
